*1 amine or outer side, *2 acyl side, *3 side chain or, on linkers, in order; H or OH if unused. Where a SMILES comes first, the peptide text is derived from it. Bridges are numbered along the chain shown (N, C = ends). [ ]: non-standard residue; d: D form. The star is where a group is joined. ξ: configuration not given here. Phe(3-CF3) = N[C@@H](Cc1cccc(C(F)(F)F)c1)C(=O)O; Phe(4-COOH) = N[C@@H](Cc1ccc(C(=O)O)cc1)C(=O)O; Bip = N[C@@H](Cc1ccc(-c2ccccc2)cc1)C(=O)O; Phe(4-CN) = N#Cc1ccc(C[C@H](N)C(=O)O)cc1; Phe(3-F) = N[C@@H](Cc1cccc(F)c1)C(=O)O; Phe(3-Me) = Cc1cccc(C[C@H](N)C(=O)O)c1; γGlu = O=C(O)[C@H](CCC(=O)[*:2])N[*:1]; NH(CH2)12COOH = O=C(O)CCCCCCCCCCCCN*; Val(3-OH) = CC(C)(O)[C@H](N)C(=O)O; 4Pal = N[C@@H](Cc1ccncc1)C(=O)O; Cha = N[C@@H](CC1CCCCC1)C(=O)O; Cit = NC(=O)NCCC[C@H](N)C(=O)O; Thr(3ξ) = CC(O)[C@H](N)C(=O)O; Phg = N[C@H](C(=O)O)c1ccccc1; 12Ado = NCCCCCCCCCCCC(=O)O; hSer = N[C@@H](CCO)C(=O)O; Carboxymethyl = O=C(O)C*; NMeA = CN[C@@H](C)C(=O)O; Orn = NCCC[C@H](N)C(=O)O; Aun = NCCCCCCCCCCC(=O)O; Dab = NCC[C@H](N)C(=O)O; Dap = NC[C@H](N)C(=O)O; AEEA = NCCOCCOCC(=O)O
target: T1, PD-1/PD-L1 interaction (PE-labeled human PD-L1-Ig binding to Jurkat cell line over-expressing human PD-1) (Homo sapiens, UniProt Q15116); experiment: Jurkat-PD-1 Cell Binding High-Content Screening Assay (CBA); conditions: Jurkat-hPD-1 cells, PE-labeled PD-L1-Ig 20 nM final; read-out: Jurkat HPD1 PDL1 IC50
T1 construct: expressed in transfected cells; host or cells: Jurkat
T1 sequence (Q15116 25-288): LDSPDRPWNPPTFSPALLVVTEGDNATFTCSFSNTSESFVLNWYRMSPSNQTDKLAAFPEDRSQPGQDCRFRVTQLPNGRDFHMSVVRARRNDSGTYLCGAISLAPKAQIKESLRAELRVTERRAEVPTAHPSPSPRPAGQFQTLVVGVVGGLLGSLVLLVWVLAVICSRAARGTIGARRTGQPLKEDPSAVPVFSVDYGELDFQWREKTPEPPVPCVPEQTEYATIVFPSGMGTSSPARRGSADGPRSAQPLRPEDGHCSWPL
Procedure, shortened: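 High-content imaging read-out of PE-PD-L1-Ig binding (20 nM final, 1 h) to Jurkat-hPD-1 cells, after 2 h compound exposure at 37 °C in DMEM with 10% FCS. Nuclei counterstained with Hoechst 33342 after paraformaldehyde fixation.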

IC50 [nM]	Structure (SMILES)
31.8	Cc1cccc(C[C@@H]2NC(=O)[C@H](CC(=O)O)NC(=O)[C@H](Cc3ccc(OCC(=O)O)cc3)NC(=O)[C@H]([C@@H](C)O)NC(=O)CSC[C@@H](C(=O)N[C@@H](CCN)C(=O)NCCOCCOCC(=O)NCCCCCCCCCCC(=O)O)NC(=O)[C@H]([C@@H](C)O)NC(=O)[C@H](C(C)C)NC(=O)[C@H](CC3CCCCC3)NC(=O)[C@H](CCC(=O)O)NC(=O)[C@@H](CC(C)C)NC(=O)[C@H](C)N(C)C(=O)[C@H](Cc3ccc(OCC(=O)O)cc3)NC(=O)[C@H](Cc3ccc(-c4ccccc4)cc3)NC(=O)[C@H](Cc3ccc(OCC(=O)O)cc3)NC2=O)c1 [Example 1375] ({CH2CO}-TY(Carboxymethyl)D[Phe(3-Me)]Y(Carboxymethyl)[Bip]Y(Carboxymethyl)[NMeA][dL]E[Cha]VTC[Dab][AEEA][Aun]-OH; thioether N-14)
26.8	CC(=O)NCCCC[C@@H]1NC(=O)[C@H](Cc2ccc(-c3ccccc3)cc2)NC(=O)[C@H](C(C)C)NC(=O)[C@H](Cc2cccc(C)c2)NC(=O)[C@H](CC(=O)O)NC(=O)[C@H](Cc2ccc(OCC(=O)O)cc2)NC(=O)[C@H](Cc2ccc(OCC(=O)O)cc2)NC(=O)CSC[C@@H](C(=O)N[C@@H](CCN)C(=O)NCCCCCCCCCCC(=O)O)NC(=O)[C@H](CO)NC(=O)[C@H](C(C)O)NC(=O)[C@H](CC2CCCCC2)NC(=O)[C@H](CCN)NC(=O)[C@@H](CC(C)C)NC(=O)[C@H](C)N(C)C1=O (stereo partly drawn) [Example 2371] ({CH2CO}-Y(Carboxymethyl)Y(Carboxymethyl)D[Phe(3-Me)]V[Bip]K(Ac)[NMeA][dL][Dab][Cha][Thr(3ξ)]SC[Dab][Aun]-OH; thioether N-14)
18	CC(C)C[C@@H]1NC(=O)[C@H](Cc2c[nH]c3ccccc23)NC(=O)[C@H](CC(=O)O)NC(=O)[C@H](Cc2ccncc2)NC(=O)[C@H](Cc2ccc(OCC(=O)O)cc2)NC(=O)CSC[C@@H](C(=O)N[C@@H](CCCN)C(=O)NCCCCCCCCCCC(=O)O)NC(=O)[C@H](CCC(N)=O)NC(=O)[C@H](C(C)C)NC(=O)[C@H](CC2CCCCC2)NC(=O)[C@H](CCN)NC(=O)[C@@H](CC(C)C)NC(=O)[C@H](C)N(C)C(=O)[C@H](C(C)C)NC(=O)[C@H](Cc2ccc(-c3ccccc3)cc2)NC1=O [Example 1342] ({CH2CO}-Y(Carboxymethyl)[4Pal]DWL[Bip]V[NMeA][dL][Dab][Cha]VQC[Orn][Aun]-OH; thioether N-14)
18.1	Cc1cccc(C[C@@H]2NC(=O)[C@H](CC(=O)O)NC(=O)[C@H](Cc3ccc(OCC(=O)O)cc3)NC(=O)[C@H](CN)NC(=O)CSC[C@@H](C(=O)N[C@@H](CCN)C(=O)NCCOCCOCC(=O)NCCCCCCCCCCC(=O)O)NC(=O)[C@H](CCC(=O)O)NC(=O)[C@H](C(C)(C)O)NC(=O)[C@H](CC3CCCCC3)NC(=O)[C@H](CCN)NC(=O)[C@@H](CC(C)C)NC(=O)[C@H](C)N(C)C(=O)[C@H](Cc3ccc(OCC(=O)O)cc3)NC(=O)[C@H](Cc3ccc(-c4ccccc4)cc3)NC(=O)[C@H](Cc3ccc(OCC(=O)O)cc3)NC2=O)c1 [Example 1426] ({CH2CO}-[Dap]Y(Carboxymethyl)D[Phe(3-Me)]Y(Carboxymethyl)[Bip]Y(Carboxymethyl)[NMeA][dL][Dab][Cha][Val(3-OH)]EC[Dab][AEEA][Aun]-OH; thioether N-14)

Continued, molecule first:

Structure (SMILES)	IC50 [nM]
Cc1cccc(C[C@@H]2NC(=O)[C@H](CC(=O)O)NC(=O)[C@H](Cc3ccc(O)cc3)NC(=O)[C@H](CC(N)=O)NC(=O)CSC[C@@H](C(=O)N[C@@H](CCN)C(=O)NCCCCCCCCCCC(=O)O)NC(=O)[C@H]([C@@H](C)O)NC(=O)[C@H](C(C)C)NC(=O)[C@H](CC3CCCCC3)NC(=O)[C@H](CCN)NC(=O)[C@@H](CC(C)C)NC(=O)[C@H](C)N(C)C(=O)[C@H](Cc3ccc(O)cc3)NC(=O)[C@H](Cc3ccc(-c4ccccc4)cc3)NC(=O)[C@H](C(C)C)NC2=O)c1 [Example 1321] ({CH2CO}-NYD[Phe(3-Me)]V[Bip]Y[NMeA][dL][Dab][Cha]VTC[Dab][Aun]-OH; thioether N-14)	142
CC(C)C[C@@H]1NC(=O)[C@H](Cc2c[nH]c3ccccc23)NC(=O)[C@H](CC(=O)O)NC(=O)[C@H](Cc2ccncc2)NC(=O)[C@H](Cc2ccc(OCC(=O)O)cc2)NC(=O)CSC[C@@H](C(=O)N[C@@H](CCCN)C(=O)NCCOCCOCC(=O)NCCCCCCCCCCC(=O)O)NC(=O)[C@H](CO)NC(=O)[C@H](C(C)C)NC(=O)[C@H](CC2CCCCC2)NC(=O)[C@H](CCN)NC(=O)[C@@H](CC(C)C)NC(=O)[C@H](C)N(C)C(=O)[C@H](C(C)C)NC(=O)[C@H](Cc2ccc(-c3ccccc3)cc2)NC1=O [Example 1090] ({CH2CO}-Y(Carboxymethyl)[4Pal]DWL[Bip]V[NMeA][dL][Dab][Cha]VSC[Orn][AEEA][Aun]-OH; thioether N-14)	8.3
Cc1cccc(C[C@@H]2NC(=O)[C@H](CC(=O)O)NC(=O)[C@H](Cc3ccc(C(=O)O)cc3)NC(=O)[C@H](CCN)NC(=O)CSC[C@@H](C(=O)N[C@@H](CCN)C(=O)NCCCCCCCCCCC(=O)O)NC(=O)[C@H](CO)NC(=O)[C@H](C(C)(C)O)NC(=O)[C@H](CC3CCCCC3)NC(=O)[C@H](CCN)NC(=O)[C@@H](CC(C)C)NC(=O)[C@H](C)N(C)C(=O)[C@H](Cc3ccc(OCC(=O)O)cc3)NC(=O)[C@H](Cc3ccc(-c4ccccc4)cc3)NC(=O)[C@H](c3ccccc3)NC2=O)c1 [Example 1292] ({CH2CO}-[Dab][Phe(4-COOH)]D[Phe(3-Me)][Phg][Bip]Y(Carboxymethyl)[NMeA][dL][Dab][Cha][Val(3-OH)]SC[Dab][Aun]-OH; thioether N-14)	96.9
Cc1cccc(C[C@@H]2NC(=O)[C@H](CC(=O)O)NC(=O)[C@H](Cc3ccc(C(=O)O)cc3)NC(=O)[C@H](Cc3ccc(OCC(=O)O)cc3)NC(=O)CSC[C@@H](C(=O)NCCOCCOCC(=O)NCCCCCCCCCCC(=O)O)NC(=O)[C@H](CCO)NC(=O)[C@H](C(C)C)NC(=O)[C@H](CC3CCCCC3)NC(=O)[C@H](CCN)NC(=O)[C@@H](CC(C)C)NC(=O)[C@H](C)N(C)C(=O)[C@H](CCCNC(N)=O)NC(=O)[C@H](Cc3ccc(-c4ccccc4)cc3)NC(=O)[C@H](C(C)C)NC2=O)c1 [Example 2317] ({CH2CO}-Y(Carboxymethyl)[Phe(4-COOH)]D[Phe(3-Me)]V[Bip][Cit][NMeA][dL][Dab][Cha]V[hSer]C[AEEA][Aun]-OH; thioether N-14)	8.9
CC(C)C[C@H]1NC(=O)[C@H](C)N(C)C(=O)[C@H](C(C)C)NC(=O)[C@H](Cc2ccc(-c3ccccc3)cc2)NC(=O)[C@H](C(C)C)NC(=O)[C@H](Cc2c[nH]c3ccccc23)NC(=O)[C@H](CC(=O)O)NC(=O)[C@H](Cc2ccc(OCC(=O)O)cc2)NC(=O)[C@H](Cc2ccncc2)NC(=O)CSC[C@@H](C(=O)N[C@@H](CCN)C(=O)NCCOCCOCC(=O)N[C@@H](CCC(=O)NCCOCCOCC(=O)N[C@@H](CCCCN)C(=O)NCCCCCCCCCCCC(=O)O)C(=O)O)NC(=O)[C@H](CO)NC(=O)[C@H](C(C)C)NC(=O)[C@H](CC2CCCCC2)NC(=O)[C@H](CCN)NC1=O [Example 2118] ({CH2CO}-[4Pal]Y(Carboxymethyl)DWV[Bip]V[NMeA][dL][Dab][Cha]VSC[Dab][AEEA][γGlu][AEEA]K[12Ado]-OH; thioether N-14)	14.3
CC(C)C[C@H]1NC(=O)[C@H](C)N(C)C(=O)[C@H](CCC(N)=O)NC(=O)[C@H](Cc2ccc(-c3ccccc3)cc2)NC(=O)[C@H](Cc2ccc(C(=O)O)cc2)NC(=O)[C@H](Cc2cccc(C(F)(F)F)c2)NC(=O)[C@H](CC(=O)O)NC(=O)[C@H](Cc2ccc(OCC(=O)O)cc2)NC(=O)[C@H](Cc2ccc(C(=O)O)cc2)NC(=O)CSC[C@@H](C(=O)N[C@@H](CCN)C(=O)NCCCCCCCCCCCCC(=O)O)NC(=O)[C@H](CO)NC(=O)[C@H](C(C)(C)O)NC(=O)[C@H](CC2CCCCC2)NC(=O)[C@H](CCN)NC1=O [Example 1144] ({CH2CO}-[Phe(4-COOH)]Y(Carboxymethyl)D[Phe(3-CF3)][Phe(4-COOH)][Bip]Q[NMeA][dL][Dab][Cha][Val(3-OH)]SC[Dab]-{NH(CH2)12COOH}; thioether N-14)	14

same assay, conditions: PE-labeled PD-L1-Ig 20 nM final, Jurkat-hPD-1 cells; read-out: Jurkat HPD1 PDL1 IC50

IC50 [nM]	Structure (SMILES)
16.9	Cc1cccc(C[C@@H]2NC(=O)[C@H](CC(=O)O)NC(=O)[C@H](Cc3ccc(C#N)cc3)NC(=O)[C@H](C(C)O)NC(=O)CSC[C@@H](C(=O)N[C@@H](CCN)C(=O)NCCOCCOCC(=O)NCCOCCOCC(=O)NCCCCCCCCCCC(=O)O)NC(=O)[C@H](CCC(=O)O)NC(=O)[C@H](C(C)C)NC(=O)[C@H](CC3CCCCC3)NC(=O)[C@H](CCN)NC(=O)[C@@H](CC(C)C)NC(=O)[C@H](C)N(C)C(=O)[C@H](Cc3ccc(OCC(=O)O)cc3)NC(=O)[C@H](Cc3ccc(-c4ccccc4)cc3)NC(=O)[C@H](Cc3cccc(F)c3)NC2=O)c1 (stereo partly drawn) [Example 2526] ({CH2CO}-[Thr(3ξ)][Phe(4-CN)]D[Phe(3-Me)][Phe(3-F)][Bip]Y(Carboxymethyl)[NMeA][dL][Dab][Cha]VEC[Dab][AEEA][AEEA][Aun]-OH; thioether N-14)
22.8	CC(C)C[C@H]1NC(=O)[C@H](C)N(C)C(=O)[C@H](Cc2ccc(C(=O)O)cc2)NC(=O)[C@H](Cc2ccc(-c3ccccc3)cc2)NC(=O)[C@H](Cc2ccc(C(=O)O)cc2)NC(=O)[C@H](Cc2cccc(C(F)(F)F)c2)NC(=O)[C@H](CC(=O)O)NC(=O)[C@H](Cc2ccc(C(=O)O)cc2)NC(=O)[C@H](C(C)O)NC(=O)CSC[C@@H](C(=O)N[C@@H](CCN)C(=O)NCCCCCCCCCCCCC(=O)O)NC(=O)[C@H](CO)NC(=O)[C@H](C(C)(C)O)NC(=O)[C@H](CC2CCCCC2)NC(=O)[C@H](CCN)NC1=O (stereo partly drawn) [Example 2568] ({CH2CO}-[Thr(3ξ)][Phe(4-COOH)]D[Phe(3-CF3)][Phe(4-COOH)][Bip][Phe(4-COOH)][NMeA][dL][Dab][Cha][Val(3-OH)]SC[Dab]-{NH(CH2)12COOH}; thioether N-14)

Reference: patent US20260070945A1, “MACROCYCLIC IMMUNOMODULATORS” (Bristol-Myers Squibb Company, priority 2022, published 2026)
